Measurements: US20040039014A1, “Methods and compounds for treating depression and other disorders” (NPS Pharmaceuticals, Inc., priority 1998, published 2004)
Counter-ions that a name gives are not always drawn. Marks after values point to notes of the source that are not given here.

What was measured:
[1] = test system: male NIH-Swiss mice; assay: Mouse forced-swim test (FST); format: in vivo
Protocol: (§1) For the mouse and rat forced-swim tests, male pathogen-free NIH-Swiss mice (Harlan Sprague-Dawley) weighing between 22-25 g, and male pathogen-free Sprague-Dawley rats (Harlan Sprague-Dawley) weighing between 320-350 g were used. Animals were removed from the housing room to the testing area in their own cages and allowed to adapt to the new environment for at least 1 hour before testing. Mice were administered either drug (imipramine, 10 mg/kg i.p.; or Compound 60, various p.o or i.p. doses) or saline. Thirty minutes to 24 hours later, mice were placed individually in cylinders (diameter: 10 cm; height: 25 cm) filled with 6 cm of water (22-25° C.) for 6 minutes. The duration of immobility during the last 4 minutes of the 6 minute test was scored. A mouse was recorded as immobile when floating motionless or making only those movements necessary to keep its head above water. Results were expressed as the duration of immobility (seconds).

[2] = test system: male Sprague-Dawley rats; assay: Rat forced-swim test (FST); format: in vivo; conditions: Table VI, 60 minutes prior to testing, saline control 47.9
Protocol: as §1
The rat forced-swim test was conducted over two days. On treatment Day 1, rats were placed individually in cylinders (diameter: 18 cm; height: 40 cm) filled with water (22-25° C.) to a depth of 15 cm for 15 minutes. The duration of immobility during the first 5 minutes was scored. After testing, the rats were dried with paper towels and placed in holding cages. Five minutes after removal from the testing cylinders, animals received either drug (imipramine, 10 mg/kg i.p.; or Compound 60, various p.o. doses) or saline (p.o.). Ten minutes later, the rats were returned to their home cages. […] The duration of immobility during the first 5 minute period was recorded. A rat was recorded as immobile when floating motionless or making only those movements necessary to keep its head above water. […]

[3] = test system: male C57BL/6 mice; assay: Mouse tail-suspension test (TST) with Compound 60; format: in vivo; conditions: for Mean duration of immobility: Table VII, 5 mg/kg p.o. single dose, saline control 154.9
Protocol: For the mouse tail-suspension test with Compound 60, male pathogen-free C57BL/6 mice (Harlan Sprague-Dawley) weighing between 22-25 g were used. Animals were removed from the housing room to the testing area in their own cages and allowed to adapt to the new environment for at least 1 hour before testing. Mice were administered either drug (imipramine, 15 mg/kg i.p.; or Compound 60, various p.o. doses) or saline. Thirty minutes to 24 hours later, the mice were suspended on the edge of a shelf 80 cm above the floor in the testing room by adhesive tape placed approximately 1 cm from the tip of the tail. The duration of immobility was recorded during a test period of 5 minutes. Mice were considered immobile only when they hung passively and completely motionless. Results were expressed as the duration of immobility (sec).

[4] = molecular target: T1, serotonin transporter site (Rattus norvegicus, UniProt P31652); assay: Serotonin reuptake inhibition assay ([3H]citalopram binding, rat forebrain membranes); conditions: Table I; read-out: 5-HT Uptake Ki
T1 construct: tissue NovaScreen (performed the assay); host or cells: rat forebrain membranes
T1 sequence (P31652 whole entry): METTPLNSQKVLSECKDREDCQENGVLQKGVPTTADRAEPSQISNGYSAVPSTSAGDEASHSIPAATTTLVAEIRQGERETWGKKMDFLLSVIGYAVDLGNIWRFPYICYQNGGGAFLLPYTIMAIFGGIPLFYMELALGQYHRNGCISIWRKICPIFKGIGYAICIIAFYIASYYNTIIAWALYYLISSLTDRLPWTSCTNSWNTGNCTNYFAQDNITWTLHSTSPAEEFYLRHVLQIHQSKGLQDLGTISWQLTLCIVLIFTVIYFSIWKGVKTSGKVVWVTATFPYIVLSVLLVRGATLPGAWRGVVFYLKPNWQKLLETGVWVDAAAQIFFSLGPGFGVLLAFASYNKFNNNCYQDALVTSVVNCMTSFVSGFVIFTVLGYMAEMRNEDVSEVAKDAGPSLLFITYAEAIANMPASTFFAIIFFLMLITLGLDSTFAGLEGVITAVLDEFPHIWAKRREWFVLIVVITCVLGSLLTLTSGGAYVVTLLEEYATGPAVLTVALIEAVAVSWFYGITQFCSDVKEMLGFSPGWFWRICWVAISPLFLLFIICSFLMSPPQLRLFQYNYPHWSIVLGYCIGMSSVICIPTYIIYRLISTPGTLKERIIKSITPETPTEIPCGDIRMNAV
Protocol: (§2) Monoamine Transporter Minding Assays
(§3) Monoamine transporter binding assays (reuptake inhibition assays) were performed by NovaScreen using standard radioligand binding assays. The transporter binding assays are described briefly below:
Serotonin Reuptake Inhibition Assay
Rat forebrain membranes were incubated with 0.7 nM [^3H] citalopram, N-methyl, (70-87 Ci/mmol)in 50 mM Tris-HCl (pH 7.4), 120 mM NaCl, and 5 mM KCl at 25° C. for 60 minutes. […] Reactions were terminated by rapid vacuum filtration onto glass fiber filters.

[5] = molecular target: T2, dopamine transporter site (Cavia porcellus, UniProt H0WCX4); assay: Dopamine reuptake inhibition assay ([3H]WIN 35428 binding, guinea pig striatal membranes); conditions: Table I; read-out: DA Uptake Ki
T2 construct: tissue NovaScreen (performed the assay); host or cells: guinea pig striatal membranes
T2 sequence (H0WCX4 1-619): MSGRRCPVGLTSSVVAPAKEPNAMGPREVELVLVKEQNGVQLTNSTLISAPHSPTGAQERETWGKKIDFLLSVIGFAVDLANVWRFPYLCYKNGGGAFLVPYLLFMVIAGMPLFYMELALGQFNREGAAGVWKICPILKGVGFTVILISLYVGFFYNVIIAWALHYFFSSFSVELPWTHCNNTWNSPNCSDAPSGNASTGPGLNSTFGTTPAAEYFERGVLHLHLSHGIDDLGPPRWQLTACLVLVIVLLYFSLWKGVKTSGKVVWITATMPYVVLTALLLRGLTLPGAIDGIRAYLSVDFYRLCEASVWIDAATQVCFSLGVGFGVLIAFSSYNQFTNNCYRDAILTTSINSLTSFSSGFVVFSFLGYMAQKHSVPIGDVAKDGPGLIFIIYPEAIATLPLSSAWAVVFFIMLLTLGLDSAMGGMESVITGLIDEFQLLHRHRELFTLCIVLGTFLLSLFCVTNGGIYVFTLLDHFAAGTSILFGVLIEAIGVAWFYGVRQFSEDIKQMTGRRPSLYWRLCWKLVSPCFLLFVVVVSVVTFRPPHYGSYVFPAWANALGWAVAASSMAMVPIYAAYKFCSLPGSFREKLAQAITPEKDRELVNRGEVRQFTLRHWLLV
Protocol: as §2, §3
Dopamine Reuptake Inhibition Assay:
Reactions were terminated by rapid vacuum filtration onto glass fiber filters. Bound radioactivity was determined using liquid scintillation spectrometry and experimental values were compared to control values to determine binding to the dopamine transporter site based on Madras, et al., Molec.

## CNCCC(c1cccc(F)c1)c1cccc(F)c1 [Compound 60, N-Methyl-3.,3-bis(3-fluorophenyl)propylamine hydrochloride]
[1]; Table III, 5 mg/kg p.o. single dose, time post-dose 0.5, saline control 128.2
  Mean duration of immobility: 96.1 s
[1]; Table III, 5 mg/kg p.o. single dose, time post-dose 1, saline control 128.2
  Mean duration of immobility: 38.8* sec
[1]; Table III, 5 mg/kg p.o. single dose, time post-dose 2, saline control 128.2
  Mean duration of immobility: 66.2* sec
[1]; Table III, 5 mg/kg p.o. single dose, time post-dose 4, saline control 128.2
  Mean duration of immobility: 66.9* sec
[1]; Table III, 5 mg/kg p.o. single dose, time post-dose 6, saline control 128.2
  Mean duration of immobility: 76.8* sec
[1]; Table III, 5 mg/kg p.o. single dose, time post-dose 24, saline control 128.2
  Mean duration of immobility: 124.8 s
[1]; Table IV, 0.625 mg/kg single oral dose 60 minutes prior to testing, saline control 129.7
  Mean duration of immobility: 153.3 s
[1]; Table IV, 1.25 mg/kg single oral dose 60 minutes prior to testing, saline control 129.7
  Mean duration of immobility: 72.3* sec
[1]; Table IV, 2.5 mg/kg single oral dose 60 minutes prior to testing, saline control 129.7
  Mean duration of immobility: 64.5* sec
[1]; Table IV, 5 mg/kg single oral dose 60 minutes prior to testing, saline control 129.7
  Mean duration of immobility: 56.6* sec
[1]; Table IV, 10 mg/kg single oral dose 60 minutes prior to testing, saline control 129.7
  Mean duration of immobility: 68.7* sec
[1]; Table V, 0.625 mg/kg single i.p. dose 30 minutes prior to testing, saline control 137.8
  Mean duration of immobility: 139.5 s
[1]; Table V, 1.25 mg/kg single i.p. dose 30 minutes prior to testing, saline control 137.8
  Mean duration of immobility: 85.6* sec
[1]; Table V, 2.5 mg/kg single i.p. dose 30 minutes prior to testing, saline control 137.8
  Mean duration of immobility: 68.5* sec
[1]; Table V, 5 mg/kg single i.p. dose 30 minutes prior to testing, saline control 137.8
  Mean duration of immobility: 89.6* sec
[1]; Table V, 10 mg/kg single i.p. dose 30 minutes prior to testing, saline control 137.8
  Mean duration of immobility: 106.1 s
[1]; mouse FST, single dose 5 mg/kg p.o.
  time of peak effect (reduction in the duration of immobility) post-dosing: 60 min
[2]; 1.25 mg/kg oral
  Mean Change in the Duration of Immobility (Day 2 minus Day 1): 29.7 s
[2]; 2.5 mg/kg oral
  Mean Change in the Duration of Immobility (Day 2 minus Day 1): −24.8* sec
[2]; 5 mg/kg oral
  Mean Change in the Duration of Immobility (Day 2 minus Day 1): −28.8* sec
[3]; Table IX (experiment #2), 0.625 mg/kg single oral dose 60 minutes prior to testing, saline control 149.1
  Duration of Immobility: 143.3 s
[3]; Table IX (experiment #2), 1.25 mg/kg single oral dose 60 minutes prior to testing, saline control 149.1
  Duration of Immobility: 125.8 s
[3]; Table IX (experiment #2), 2.5 mg/kg single oral dose 60 minutes prior to testing, saline control 149.1
  Duration of Immobility: 69.6* sec
[3]; Table IX (experiment #2), 5 mg/kg single oral dose 60 minutes prior to testing, saline control 149.1
  Duration of Immobility: 69.5* sec
[3]; Table IX (experiment #2), 10 mg/kg single oral dose 60 minutes prior to testing, saline control 149.1
  Duration of Immobility: 15.6* sec
[3]; time post-dose 0.5
  Mean duration of immobility: 84.9* sec
[3]; time post-dose 1
  Mean duration of immobility: 74.7* sec
[3]; time post-dose 2
  Mean duration of immobility: 93.0* sec
[3]; time post-dose 4
  Mean duration of immobility: 109.7 s
[3]; time post-dose 6
  Mean duration of immobility: 125.5 s
[3]; time post-dose 24
  Mean duration of immobility: 177.7 s
[3]; Table VIII (experiment #1), 2.5 mg/kg single oral dose 60 minutes prior to testing, saline control 210.1
  Duration of Immobility: 130.7* sec
[3]; Table VIII (experiment #1), 5 mg/kg single oral dose 60 minutes prior to testing, saline control 210.1
  Duration of Immobility: 123.5* sec
[3]; Table VIII (experiment #1), 10 mg/kg single oral dose 60 minutes prior to testing, saline control 210.1
  Duration of Immobility: 47.8* sec
[3]; mouse TST, single 5-mg/kg oral dose
  time of peak effect (reduction in the duration of immobility) post-dosing: 60 min
[4]
  Ki: 68 nM
[5]
  Ki: 914 nM
